The text below walks through data of US20200239530A1, “COMPOUNDS AND METHODS OF MODULATING PROTEIN DEGRADATION” (Vividion Therapeutics, Inc., priority 2017, published 2020).

Where two headings read alike, the source gives them in different places.

What all share (assay): Cysteine liganding, probe competition
What all share (assay type): binding

One assay has as its target T1, UniProt Q3KNV8 (Homo sapiens, UniProt Q3KNV8).
T1 construct: Cells were resuspended in cold PBS on ice and sonicated with a probe sonicator to achieve lysis; endogenous in cells
T1 sequence (Q3KNV8 1-242): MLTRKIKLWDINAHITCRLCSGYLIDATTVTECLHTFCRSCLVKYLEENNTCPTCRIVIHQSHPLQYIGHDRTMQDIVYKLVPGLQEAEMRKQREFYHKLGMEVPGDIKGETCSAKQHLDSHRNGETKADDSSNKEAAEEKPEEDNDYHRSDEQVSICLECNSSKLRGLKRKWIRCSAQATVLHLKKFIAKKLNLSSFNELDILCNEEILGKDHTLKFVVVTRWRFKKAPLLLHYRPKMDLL
The source says:
(§1) The following 96-well sample prep protocol was used for sample preparation.

In a further assay the target is T2, UniProt Q7Z3V4 (Homo sapiens, UniProt Q7Z3V4).
T2 construct: 200 μL of lysate containing 5 mg/ml proteome was treated with 2 μL of 100× compound stock; endogenous in cells
T2 sequence (Q7Z3V4 1-1068): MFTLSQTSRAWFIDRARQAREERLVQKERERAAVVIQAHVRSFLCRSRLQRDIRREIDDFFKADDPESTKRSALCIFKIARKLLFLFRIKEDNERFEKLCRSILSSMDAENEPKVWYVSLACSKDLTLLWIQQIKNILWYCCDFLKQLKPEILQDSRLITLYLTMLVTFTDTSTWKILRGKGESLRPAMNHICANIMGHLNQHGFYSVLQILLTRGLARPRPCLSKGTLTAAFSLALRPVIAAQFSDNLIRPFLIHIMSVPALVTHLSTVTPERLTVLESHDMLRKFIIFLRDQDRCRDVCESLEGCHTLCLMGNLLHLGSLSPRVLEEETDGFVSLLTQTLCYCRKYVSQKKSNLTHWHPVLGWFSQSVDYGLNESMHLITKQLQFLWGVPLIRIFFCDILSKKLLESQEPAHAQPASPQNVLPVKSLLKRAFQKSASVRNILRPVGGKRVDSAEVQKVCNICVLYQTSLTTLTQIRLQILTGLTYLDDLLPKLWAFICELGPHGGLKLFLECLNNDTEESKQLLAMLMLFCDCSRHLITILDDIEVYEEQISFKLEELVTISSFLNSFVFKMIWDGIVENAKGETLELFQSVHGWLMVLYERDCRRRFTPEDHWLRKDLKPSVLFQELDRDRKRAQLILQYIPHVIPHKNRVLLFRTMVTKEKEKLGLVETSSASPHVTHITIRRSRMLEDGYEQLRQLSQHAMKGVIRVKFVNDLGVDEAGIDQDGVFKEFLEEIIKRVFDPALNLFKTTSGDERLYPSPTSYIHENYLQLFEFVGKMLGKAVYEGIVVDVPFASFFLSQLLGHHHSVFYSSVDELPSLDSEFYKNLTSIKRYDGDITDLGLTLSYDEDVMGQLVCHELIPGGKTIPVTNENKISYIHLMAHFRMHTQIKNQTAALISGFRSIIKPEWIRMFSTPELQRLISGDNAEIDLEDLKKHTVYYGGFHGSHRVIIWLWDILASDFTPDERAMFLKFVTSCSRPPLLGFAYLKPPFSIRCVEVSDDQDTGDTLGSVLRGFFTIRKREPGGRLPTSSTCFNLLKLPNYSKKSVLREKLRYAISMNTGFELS
From the text: as §1

The target in a further assay is T3, UniProt Q8TE49 (Homo sapiens, UniProt Q8TE49).
T3 construct: Cells were resuspended in cold PBS on ice and sonicated with a probe sonicator to achieve lysis; endogenous in cells
T3 sequence (Q8TE49 1-926): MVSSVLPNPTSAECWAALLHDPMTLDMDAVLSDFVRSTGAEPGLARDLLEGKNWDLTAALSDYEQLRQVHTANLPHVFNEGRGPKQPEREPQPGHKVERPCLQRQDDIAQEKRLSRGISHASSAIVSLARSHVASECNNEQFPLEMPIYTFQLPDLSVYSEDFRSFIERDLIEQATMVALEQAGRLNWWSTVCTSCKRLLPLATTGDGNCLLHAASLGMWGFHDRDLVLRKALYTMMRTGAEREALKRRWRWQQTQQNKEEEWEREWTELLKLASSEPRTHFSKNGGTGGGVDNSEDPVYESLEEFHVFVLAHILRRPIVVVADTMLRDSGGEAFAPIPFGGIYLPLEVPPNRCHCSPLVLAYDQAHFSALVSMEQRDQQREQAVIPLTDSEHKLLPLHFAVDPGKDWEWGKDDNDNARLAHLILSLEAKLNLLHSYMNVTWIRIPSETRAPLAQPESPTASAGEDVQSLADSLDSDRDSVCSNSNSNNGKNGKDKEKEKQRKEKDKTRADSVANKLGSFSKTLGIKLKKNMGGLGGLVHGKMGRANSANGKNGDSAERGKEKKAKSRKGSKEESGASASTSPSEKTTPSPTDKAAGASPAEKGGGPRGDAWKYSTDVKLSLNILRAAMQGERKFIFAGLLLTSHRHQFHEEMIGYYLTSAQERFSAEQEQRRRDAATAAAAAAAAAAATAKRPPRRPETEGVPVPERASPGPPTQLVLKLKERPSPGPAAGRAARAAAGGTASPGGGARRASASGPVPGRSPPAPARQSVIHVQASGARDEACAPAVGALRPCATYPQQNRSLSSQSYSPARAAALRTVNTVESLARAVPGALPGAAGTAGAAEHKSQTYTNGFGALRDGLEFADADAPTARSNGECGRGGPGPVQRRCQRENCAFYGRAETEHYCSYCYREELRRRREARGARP
From the text: as §1

The target in another assay is T4, UniProt Q9BY78 (Homo sapiens, UniProt Q9BY78).
T4 construct: 200 μL of lysate containing 5 mg/ml proteome was treated with 2 μL of 100× compound stock; endogenous in cells
T4 sequence (Q9BY78 1-433): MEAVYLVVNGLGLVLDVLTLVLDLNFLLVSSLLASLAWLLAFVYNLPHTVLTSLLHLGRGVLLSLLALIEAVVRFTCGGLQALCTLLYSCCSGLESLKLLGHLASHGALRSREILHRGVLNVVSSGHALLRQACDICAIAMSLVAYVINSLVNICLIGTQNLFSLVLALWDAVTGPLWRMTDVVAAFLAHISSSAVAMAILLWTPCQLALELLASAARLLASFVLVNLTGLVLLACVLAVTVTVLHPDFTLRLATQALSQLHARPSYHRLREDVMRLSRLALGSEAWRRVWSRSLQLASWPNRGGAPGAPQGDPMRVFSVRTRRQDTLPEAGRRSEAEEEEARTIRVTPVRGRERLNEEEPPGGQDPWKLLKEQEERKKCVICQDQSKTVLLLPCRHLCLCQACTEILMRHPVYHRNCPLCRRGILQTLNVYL
Conditions: for inhibition at 500 µM: read-out: percent_inhibition.
From the text: as §1

The mark [1] stands for this setting: 100 uM, read-out: KB02_100 uM_percent_inhibition.
Where [2] appears, read: 500 uM, read-out: KB02_500 uM_percent_inhibition.
The mark [3] stands for this setting: 100 uM, read-out: KB05_100 uM_percent_inhibition.
Where [4] appears, read: 500 uM, read-out: KB05_500 uM_percent_inhibition.

Consider `O=C(CCl)Nc1cc(C(F)(F)F)cc(C(F)(F)F)c1` [KBO3], for which the “KB03_100 uM_percent_inhibition” value at UniProt Q3KNV8 (100 uM) is recorded as 6%; at UniProt Q7Z3V4 (100 uM), 33%; on UniProt Q8TE49 (100 uM), 52%. Further, the “KB03_500 uM_percent_inhibition” value at UniProt Q7Z3V4 (500 uM) and at UniProt Q8TE49 (500 uM) was 56% in each case. For the same molecule, the percent_inhibition at UniProt Q9BY78 (500 uM) was 54%.

Regarding `COc1ccc2c(c1)CCCN2C(=O)CCl` [KB02], the inhibition at 100 µM on UniProt Q3KNV8 (setting [1]) was 19%; at UniProt Q7Z3V4 (setting [1]), 42%. Further, the “KB02_500 uM_percent_inhibition” value on UniProt Q3KNV8 (500 uM) is recorded as 57%. The inhibition at 500 µM at UniProt Q3KNV8 (setting [2]) was determined as 52%; on UniProt Q7Z3V4 (setting [2]) it was 86%; at UniProt Q8TE49 (setting [2]), 28%; at UniProt Q9BY78 it was 31%.

Turning to `C=CC(=O)N(c1ccccc1)c1ccc(Br)cc1` [KB05], the inhibition at 100 µM on UniProt Q3KNV8 (setting [3]) came out at 14%; on UniProt Q7Z3V4 (setting [3]) it was 8%. Further, the “KB05_500 uM_percent_inhibition” value on UniProt Q3KNV8 (500 uM) came to 50%. Besides, the inhibition at 500 µM at UniProt Q3KNV8 (setting [4]) was found to be 58%; on UniProt Q7Z3V4 (setting [4]), 64%; on UniProt Q8TE49 (setting [4]), 23%; on UniProt Q9BY78 it was 30%.
